Assay results reported in patent US20110038885A1, “CHEMOKINE ANALOGS” (priority 2007, published 2011).
pEC50: −log10 of the molar value. Bridge positions count the residues as written; N and C are the ends. Square brackets hold non-standard residues; d marks the D form. Peptide text beside a SMILES is read from it. * marks the point of attachment. d(pGlu) = O=C1CC[C@H](C(=O)O)N1; Lauroyl = CCCCCCCCCCCC(=O)*; Ac6c = NC1(C(=O)O)CCCCC1; Octanoyl = CCCCCCCC(=O)*; Dap = NC[C@H](N)C(=O)O; AEEA = NCCOCCOCC(=O)O; Butyryl = CCCC(=O)*; X2 = CCCCCCO*

Columns and labels:
MCP-1 = assay: In vitro chemotaxis (trans-well migration) v MCP-1; format: cell-based, human
Procedure, shortened: (§1)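 Human THP-1 monocytes (10^4-10^6) with agent at varying concentrations in upper trans-well chamber; IL-8 or MCP-1 in lower chamber at a migration-inducing concentration, 37° C for e.g. 4 hours. Migrated cells quantified by MTT (595 nm) against a THP-1 standard curve; cytotoxicity and non-chemokine chemoattractant controls run.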

Half-life in rat in vivo = settings: for half-life: read-out: T ½ rat in vivo
IL-8 = assay: In vitro chemotaxis, inhibition v IL-8; format: cell-based, human; design: concentration or dose not given beside the values
Procedure, shortened: as §1

Structure (SMILES)	pEC50 (MCP-1)	T ½ rat in vivo (Half-life in rat in vivo) [min]	half-life (Half-life in rat in vivo) [min]	v IL-8 inhibition (%) (IL-8)
CC[C@H](C)[C@@H]1NC(=O)[C@H](Cc2c[nH]c3ccccc23)NC(=O)[C@H](CCCCN)NC(=O)[C@@H](NC(=O)[C@H]2CCC(=O)N2)CSSC[C@@H](C(N)=O)NC(=O)[C@H](CCC(N)=O)NC1=O [Example 53, DpGlu-c(Cys-Lys-Trp-Ile-Gln-Cys)-NH2] ([d(pGlu)]CKWIQC-NH2; disulfide 2-7)	8.22	23.1	19.4	
CC[C@H](C)[C@@H]1NC(=O)[C@H](Cc2c[nH]c3ccccc23)NC(=O)[C@H](CCCCN)NC(=O)[C@@H](NC(=O)[C@H](CCC(N)=O)NC(C)=O)CSSC[C@@H](C(N)=O)NC(=O)[C@H](CCC(N)=O)NC1=O [Example 54, Ac-Gln-c(Cys-Lys-Trp-Ile-Gln-Cys)-NH2] (Ac-QCKWIQC-NH2; disulfide 2-7)	8.00	20.9	30.3	
CC[C@H](C)[C@@H]1NC(=O)[C@H](Cc2c[nH]c3ccccc23)NC(=O)[C@H](CCCCN)NC(=O)[C@@H](NC(C)=O)CSSC[C@@H](C(N)=O)NC(=O)[C@H](CCC(N)=O)NC1=O [Example 55, Ac-c(Cys-Lys-Trp-Ile-Gln-Cys)-NH2] (Ac-CKWIQC-NH2; disulfide 1-6)	8.22	16.5	18	
CCCCCCCC(=O)NCCCC[C@H](NC(=O)[C@@H](CCC(=O)O)NC(=O)[C@H](NC(=O)[C@H]1CSSC[C@@H](N)C(=O)N[C@H](CCC(N)=O)C(=O)N[C@H]([C@H](C)CC)C(=O)N[C@H](Cc2c[nH]c3ccccc23)C(=O)N[C@H](CCCCN)C(=O)N[C@H](CCC(N)=O)C(=O)N[C@H](CCCCN)C(=O)N2CCC[C@@H]2C(=O)N[C@H](CC(=O)O)C(=O)N[C@H](CC(C)C)C(=O)N1)C(C)C)C(=O)O [Example 150, c(D-Cys-D-Gln-D-Ile-D-Trp-D-Lys-D-Gln-D-Lys-D-Pro-D-Asp-D-Leu-D-Cys)-D-Val-D-Glu-Lys(Nε-octanoyl)-OH] (H-[dC][dQ][dI][dW][dK][dQ][dK][dP][dD][dL][dC][dV][dE]K(Octanoyl)-OH; disulfide 1-11)	7.48			100.5
CCCCCCCC(=O)NCCCC[C@H](NC(=O)COCCOCCNC(=O)[C@H]1CSSC[C@@H](N)C(=O)N[C@H](CCC(N)=O)C(=O)N[C@H]([C@H](C)CC)C(=O)N[C@H](Cc2c[nH]c3ccccc23)C(=O)N[C@H](CCCCN)C(=O)N[C@H](CCC(N)=O)C(=O)N[C@H](CCCCN)C(=O)N2CCC[C@@H]2C(=O)N[C@H](CC(=O)O)C(=O)N[C@H](CC(C)C)C(=O)N1)C(=O)O [Example 151, c(D-Cys-D-Gln-D-Ile-D-Trp-D-Lys-D-Gln-D-Lys-D-Pro-D-Asp-D-Leu-D-Cys)-Doc-Lys(Nε-octanoyl)-OH] (H-[dC][dQ][dI][dW][dK][dQ][dK][dP][dD][dL][dC][AEEA]K(Octanoyl)-OH; disulfide 1-11)	7.55			103.7
CC(=O)N[C@H]1CSSC[C@@H](C(N)=O)NC(=O)[C@H](CCC(N)=O)NC(=O)C2(CCCCC2)NC(=O)[C@H](Cc2c[nH]c3ccccc23)NC(=O)[C@H](CCCCN)NC(=O)[C@H](CCC(N)=O)NC(=O)[C@H](CCCCN)NC(=O)[C@@H]2CCCN2C(=O)[C@H](CC(=O)O)NC(=O)[C@H](CC(C)C)NC1=O [Example 155, Ac-c(Cys-Leu-Asp-Pro-Lys-Gln-Lys-Trp-A6c-Gln-Cys)-NH2] (Ac-CLDPKQKW[Ac6c]QC-NH2; disulfide 1-11)	< 6.00			−1.5
CC(=O)N[C@H]1CSSC[C@@H](C(N)=O)NC(=O)[C@H](CCC(N)=O)NC(=O)[C@H](Cc2c[nH]c3ccccc23)NC(=O)[C@H](CCCCN)NC(=O)[C@H](CCC(N)=O)NC(=O)[C@H](CCCCN)NC(=O)[C@@H]2CCCN2C(=O)[C@H](CC(=O)O)NC(=O)C2(CCCCC2)NC1=O [Example 156, Ac-c(Cys-A6c-Asp-Pro-Lys-Gln-Lys-Trp-Gln-Cys)-NH2] (Ac-C[Ac6c]DPKQKWQC-NH2; disulfide 1-10)	< 6.00			3.1
CC[C@H](C)[C@@H]1NC(=O)[C@H](Cc2c[nH]c3ccccc23)NC(=O)[C@H](CCCCN)NC(=O)[C@H](CCC(N)=O)NC(=O)[C@H](CCCCN)NC(=O)[C@@H](NC(C)=O)CSSC[C@@H](C(=O)N2CCC[C@@H]2C(=O)N[C@H](CC(=O)O)C(=O)N[C@H](CC(C)C)C(N)=O)NC(=O)[C@H](CCC(N)=O)NC1=O [Example 157, Ac-c(Cys-Lys-Gln-Lys-Trp-Ile-Gln-Cys)-D-Pro-D-Asp-D-Leu-NH2] (Ac-CKQKWIQC[dP][dD][dL]-NH2; disulfide 1-8)	< 6.00			−15
CC[C@H](C)[C@@H]1NC(=O)[C@H](Cc2c[nH]c3ccccc23)NC(=O)[C@H](CCCCN)NC(=O)[C@H](CCC(N)=O)NC(=O)[C@H](CCCCN)NC(=O)[C@@H]2CCCN2C(=O)[C@@H](NC(C)=O)CSSC[C@@H](C(=O)N[C@H](CC(=O)O)C(=O)N[C@H](CC(C)C)C(N)=O)NC(=O)[C@H](CCC(N)=O)NC1=O [Example 158, Ac-c(Cys-Pro-Lys-Gln-Lys-Trp-Ile-Gln-Cys)-D-Asp-D-Leu-NH2] (Ac-CPKQKWIQC[dD][dL]-NH2; disulfide 1-9)	< 6.00			−17.9
CCCC(=O)N[C@@H]1CSSC[C@H](C(N)=O)NC(=O)[C@@H](CCCCN)NC(=O)[C@@H](Cc2c[nH]c3ccccc23)NC(=O)[C@@H]([C@H](C)CC)NC(=O)[C@@H](CCC(N)=O)NC1=O [Example 191, nButyryl-c(D-Cys-D-Gln-D-Ile-D-Trp-D-Lys-D-Cys)-NH2] (Butyryl-[dC][dQ][dI][dW][dK][dC]-NH2; disulfide 1-6)	8.30		30	

Second part, led by results:

pEC50 (MCP-1)	T ½ rat in vivo (Half-life in rat in vivo) [min]	half-life (Half-life in rat in vivo) [min]	Structure (SMILES)	v IL-8 inhibition (%) (IL-8)
< 6.00			CCCCCCCC(=O)NCCCC[C@@H]1NC(=O)[C@@H](CC(C)C)NC(=O)[C@@H](CC(=O)O)NC(=O)[C@H]2CCCN2C(=O)[C@@H](CCCCN)NC(=O)[C@@H](CCC(N)=O)NC(=O)[C@@H](CCCCN)NC(=O)[C@@H](Cc2c[nH]c3ccccc23)NC(=O)[C@@H]([C@H](C)CC)NC(=O)[C@@H](CCC(N)=O)NC(=O)[C@H](N)CSSC[C@H](C(N)=O)NC1=O [Example 153, c(D-Cys-D-Gln-D-Ile-D-Trp-D-Lys-D-Gln-D-Lys-D-Pro-D-Asp-D-Leu-Lys(Nε-octanoyl)-D-Cys)-NH2] (H-[dC][dQ][dI][dW][dK][dQ][dK][dP][dD][dL]K(Octanoyl)[dC]-NH2; disulfide 1-12)	4.1
< 6.00			CCCCCCCC(=O)NCCCC[C@@H]1NC(=O)[C@@H](CC(=O)O)NC(=O)[C@H]2CCCN2C(=O)[C@@H](CCCCN)NC(=O)[C@@H](CCC(N)=O)NC(=O)[C@@H](CCCCN)NC(=O)[C@@H](Cc2c[nH]c3ccccc23)NC(=O)[C@@H]([C@H](C)CC)NC(=O)[C@@H](CCC(N)=O)NC(=O)[C@H](N)CSSC[C@H](C(=O)O)NC(=O)[C@@H](CC(C)C)NC1=O [Example 154, c(D-Cys-D-Gln-D-Ile-D-Trp-D-Lys-D-Gln-D-Lys-D-Pro-D-Asp-Lys(Nε-octanoyl)-D-Leu-D-Cys)-OH] (H-[dC][dQ][dI][dW][dK][dQ][dK][dP][dD]K(Octanoyl)[dL][dC]-OH; disulfide 1-12)	9.8
7.60			CCCCCCCC(=O)N[C@@H](CN)C(=O)N[C@@H]1CSSC[C@H](C(N)=O)NC(=O)[C@@H](CC(C)C)NC(=O)[C@@H](CC(=O)O)NC(=O)[C@H]2CCCN2C(=O)[C@@H](CCCCN)NC(=O)[C@@H](CCC(N)=O)NC(=O)[C@@H](CCCCN)NC(=O)[C@@H](Cc2c[nH]c3ccccc23)NC(=O)[C@@H]([C@H](C)CC)NC(=O)[C@@H](CCC(N)=O)NC1=O [Example 160, Octanoyl-Dap-c(D-Cys-D-Gln-D-Ile-D-Trp-D-Lys-D-Gln-D-Lys-D-Pro-D-Asp-D-Leu-D-Cys)-NH2] (Octanoyl-[Dap][dC][dQ][dI][dW][dK][dQ][dK][dP][dD][dL][dC]-NH2; disulfide 2-12)	100.2
8.10			CCCCCCOC(=O)C[C@H]1NC(=O)[C@H]2CCCN2C(=O)[C@@H](CCCCN)NC(=O)[C@@H](CCC(N)=O)NC(=O)[C@@H](CCCCN)NC(=O)[C@@H](Cc2c[nH]c3ccccc23)NC(=O)[C@@H]([C@H](C)CC)NC(=O)[C@@H](CCC(N)=O)NC(=O)[C@H](N)CSSC[C@H](C(N)=O)NC(=O)[C@@H](CC(C)C)NC1=O [Example 161, c(D-Cys-D-Gln-D-Ile-D-Trp-D-Lys-D-Gln-D-Lys-D-Pro-D-Asp(1-hexanol)-D-Leu-D-Cys)-NH2] (H-[dC][dQ][dI][dW][dK][dQ][dK][dP][dD](X2)[dL][dC]-NH2; disulfide 1-11)	99.8
7.60			CC[C@H](C)[C@@H]1NC(=O)[C@H](Cc2c[nH]c3ccccc23)NC(=O)[C@H](CCCCN)NC(=O)[C@H](CCC(N)=O)NC(=O)[C@H](CCCCN)NC(=O)[C@@H]2CCCN2C(=O)[C@H](CC(=O)O)NC(=O)[C@H](CC(C)C)NC(=O)[C@@H](NC(=O)[C@@H](CC(=O)O)NC(=O)[C@H](N)CCCCN)CSSC[C@@H](C(N)=O)NC(=O)[C@H](CCC(N)=O)NC1=O [Example 167, D-Lys-D-Asp-c(Cys-Leu-Asp-Pro-Lys-Gln-Lys-Trp-Ile-Gln-Cys)-NH2] (H-[dK][dD]CLDPKQKWIQC-NH2; disulfide 3-13)	99.6
< 6.00			CCCCCCCCCCCC(=O)NCCCC[C@H](N)C(=O)N[C@H](C(=O)N[C@H]1CSSC[C@@H](C(N)=O)NC(=O)[C@H](CCC(N)=O)NC(=O)[C@H]([C@@H](C)CC)NC(=O)[C@H](Cc2c[nH]c3ccccc23)NC(=O)[C@H](CCCCN)NC(=O)[C@H](CCC(N)=O)NC(=O)[C@H](CCCCN)NC(=O)[C@@H]2CCCN2C(=O)[C@H](CC(=O)O)NC(=O)[C@H](CC(C)C)NC1=O)[C@@H](C)CC [Example 169, Lys(Nε-dodecanoyl)-Ile-c(Cys-Leu-Asp-Pro-Lys-Gln-Lys-Trp-Ile-Gln-Cys)-NH2] (H-K(Lauroyl)ICLDPKQKWIQC-NH2; disulfide 3-13)	7.7
